# Experimental data taken from patent US7579324B2, “Conjugates of biologically active compounds, methods for their preparation and use, formulation and pharmaceutical applications thereof” (c-a-i-r biosciences GmbH, priority 2002, dated 2009).
# Test system: E. coli (DH5α)
# Assay: Antibiotic activity testing (TC50, dilution assay)
# Type: cell-based
# Details: concentration that inhibits 50% of growth, turbidity OD600
# Description: The TC50 or MIC procedure for antibiotic sensitivity testing involves an antibiotic dilution assay, which can be performed in microtitre plates. A series of twofold dilutions of each antibiotic are made in the wells, and then all wells are inoculated with a standard amount of the same test organism. After incubation, growth in the presence of the various antibiotics is observed by measuring turbidity.
# Bacteria: B. pumilus and E. coli (DH5α)
# Bacterial cultures are initiated from the plates for 2 to 3 weeks. After this time period bacteria are streaked out on new plates from the backups stored at −80° C. Due to the lack of resistance of the bacteria, new cultures are not to be initiated from an old plate or any liquid cultures derived from old plates.
# Growth medium (GM)(per liter): 10 g Bacto-tryptone, 5 g Bacto-yeast extract, 6 g HEPES (25 mM), 5.4 g NaCl, pH 7.3
# Compound stocks 10 or 100 mM in DMSO stored at −20° C.
# 1. Grow B.pumilus from an LB agar plate in a flask (max. 10% volume) up to about 50 ml in growth medium (GM)
# 2. Dilute overnight suspension 1:10 in GM
# 3. Determine OD600 of diluted bacterial suspension
# 4. Dilute bacterial suspension in GM to an OD600 of 0.03-0.04. (6 ml/plate)
# 5. Add 200 μl GM to the outer wells (Row A, Row H, Column 1, Column 12)
# 6. Add 100 μl GM to each well starting from C2, row 3.
# 7. Controls: Wells B2-B4 growth control. Wells B6-B8 blank. Row C growth inhibition control. • 7.1. To wells B2-B4 add: 96 μl GM, 4 μl DMSO, and 100 μl bacterial suspension adjusted to an OD600 of 0.03-0.04. • 7.2. To wells B6-B8 add: 196 μl GM and 4 μl DMSO • 7.3. Dilute a 10 mM COMPOUND 43 (positive control) stock to 800 μM (120 μl/plate) in GM. Add 100 μl of 800 μM COMPOUND 43 solution to well C2.
# 8. Samples • 8.1. Dilute the 10 or 100 mM stock solutions to 800 μM (250 μl/plate) in GM. • 8.2. Add 100 μl of 800 μM sample in duplicates to wells D2/E2 resp. F2/G2. • 8.3. 2-fold serial dilution of all samples and Azithromycin • 8.3.1. Rows C-G, Columns 2: Mix and transfer 100 μl from each row to Column 3, and continue until column 11. […]
# 11. Determine OD600 on plate reader.
row,SMILES,TC50 in E. coli
1,CC[C@H]1OC(=O)[C@H](C)C(=O)[C@H](C)[C@@H](O[C@@H]2O[C@H](C)C[C@H](N(C)C)[C@H]2OC(=O)Cc2ccccc2Nc2c(Cl)cccc2Cl)[C@](C)(O)C[C@@H](C)CN(C)[C@H](C)[C@@H](O)[C@]1(C)O [COMPOUND 53],>50 µM
2,CC[C@H]1OC(=O)[C@H](C)[C@@H](O[C@H]2C[C@@](C)(OC)[C@@H](O)[C@H](C)O2)[C@H](C)[C@@H](O[C@@H]2O[C@H](C)CC(N(C)C(=O)CN(C)CCO)[C@H]2O)[C@](C)(O)C[C@@H](C)CN(C)[C@H](C)[C@@H](O)[C@]1(C)O (stereo partly drawn) [COMPOUND 45],>50 µM
3,"CC[C@H]1OC(=O)[C@H](C)[C@@H](O[C@H]2C[C@@](C)(OC)[C@@H](O)[C@H](C)O2)[C@H](C)[C@@H](O[C@@H]2O[C@H](C)C[C@H](N(C)C)[C@H]2O)[C@](C)(O)C[C@@H](C)CN(C)[C@H](C)[C@@H](O)[C@]1(C)O [COMPOUND 43, 9a-aza-9a-methyl-9-deoxo-9a-homoerythromycin A, reference compound]",2.3 µM

# Test system: white blood cells
# Assay: Immune cell selective uptake (immune selectivity ratio) in blood cell preparations
# Type: cell-based, mammalian
# Parameters: key: Y: Compounds exhibiting high uptake; N: similar structures that do not
# Details: uptake in white cells from blood cell mix; Y/N
# Description: Freshly drawn heparinised blood or buffy coat preparations are used for the determination of immune cell partition ratios. Buffy coat preparations are preferred. These may be obtained from donor blood by simple centrifugation of whole blood (4795 g for 10 minutes). Following centrifugation, plasma is collected from the surface, after which immune cells are expressed from the donor bags along with the erythrocytes lying immediately below the leukocyte layer. This ensures high yields and a sufficient population of erythrocytes for partition. 5 ml of the resulting cell suspension are dispensed into T25 culture flasks. Substrates are added to a final concentration between 1 and 10 μM and the suspensions incubated at 37° C., in a 5% CO2 atmosphere. For analysis of uptake kinetics, samples are withdrawn at 0, 2, 5, 10, 30, 60, 90, 180, or 240 min after substrate addition. For screening purposes, samples are taken at 0 and 120 minutes.
# Cell fractions were prepared using density gradient centrifugation. Mononuclear cells and polymorphonuclear cells are separated from erythrocytes essentially by layering the cell suspension on a viscous medium typically composed of a solution containing Ficoll or similar (commercial suppliers include: Lymphoprep, Axis Shield, 1031966; Lymphoflot HLA, 824010; or PMN Separation Medium Robbins Scientific 1068-00-0). The layered suspension is then centrifuged at 600 g, 20 min, after which the cell fractions and the plasma (incubation medium) fraction are removed by gentle aspiration, washed twice in PBS buffer, followed by estimation of the cell number and pellet volume.
# Uptake of fluorescent compounds is monitored using fluorescence microscopy. Excitation and emission wavelengths depend of the fluorescence label in use. A typical label is a methoxy coumarin for which the appropriate wavelengths are 360 and 450 nm respectively. Fluorescent analogs of the compounds under study permit the estimation of appropriate uptake intervals as well as the likely intracellular distribution of the compounds. Fluorescent analogs also allow the estimation of losses in washing or other cell manipulations.
# Cell preparations are lysed in water and the debris sedimented at 16100 g, 10 min. The supernatant is recovered and sub-sampled for protein and DNA content. Protein in the supernatant is precipitated by bringing the solution to […] ethanol and centrifuging again at 16100 g, 10 min.
# Compound uptake is normalized according to cytoplasmic volume of cells in order to obtain the average concentration in the cells. Cell volume is estimated by correlation of DNA, protein or haem content of lysed cell aliquots to cell number and packed volume prior to lysis.
# Cell lysates are analysed using a HP 1100 HPLC System (Agilent Technologies, Waldbronn, Germany) with a Kromasil 3.5μ C18, 50×2.0 mm column and guard cartridge system (both, Phenomenex, Aschaffenburg, Germany) run at 30° C. A gradient elution was performed using water, 0.05% formic acid (A) and acetonitrile 0.05% formic acid (B) (0 min. 5% B, 2.5 min 5% B, 2.8 min 40% B, 10.5 min 85% B, 12.0 min 95% B, 16.5 min 95% B) at a flow rate of 300 μl/min. Re-equilibration of column was at 5% B, at a flow rate of 750 μl/min for 2.4 min. The HPLC-eluate from retention time 0.0 min to 2.5 min was directed directly to waste. Detection was via a UV cell at 214 nm followed by a ⅙ split to an An API-qTOF 1 (Micromass, Manchester, UK) mass spectrometer, (calibrated daily using a mixture of NaI, RbI and CsI). The mass spectrometer is routinely operated in the positive electrospray ionization mode using the following settings: Capillary voltage 4000 V; cone voltage 30 V; RF Lens offset 0.38 V; source block temperature 80° C.; desolvation gas temperature 140° C.; desolvation gas 240 l/h; LM/HM Resolution 0.0; Collision energy 4.0 V; Ion energy 5.0 V.
# Masses are monitored according to the known or expected M/Z ratios. […]
row,SMILES,Concentrative uptake
1,Cc1cc(=O)oc2cc(SCC(=O)NC3CCOC3=O)ccc12 (stereo not drawn) [Compound 22],Y
2,Cc1cc(=O)oc2cc(SCC(=O)NN3CCN(CCO)CC3)ccc12 [Compound 24],N
3,CN(C)c1cccc2c(S(=O)(=O)NC(C)(CO)CO)cccc12 [Compound 32],N
4,CN(C)c1cccc2c(S(=O)(=O)Nc3ccc(C(=O)O)cc3O)cccc12 [Compound 35],N
5,CCN(CC)c1ccc(NS(=O)(=O)c2cccc3c(N(C)C)cccc23)cc1 [Compound 36],N
6,CN(C)c1cccc2c(S(=O)(=O)Nc3c[nH]c(=O)[nH]c3=O)cccc12 [Compound 34],N
7,COc1cc(C)c(/C(=C\C(C)=O)CC(N)C(=O)O)cc1OC (stereo not drawn) [Compound 4],Y
8,COC(=O)C1CN(S(=O)(=O)c2cccc3c(N(C)C)cccc23)CCC1=O (stereo not drawn) [Compound 29],N
9,COc1cc2oc(=O)cc(CC(NC(=O)CN)C(=O)O)c2cc1OC (stereo not drawn) [Compound 10],N
10,Cc1cc(=O)oc2cc(SCC(=O)NN3CCOCC3)ccc12 [Compound 25],N
11,CC[C@H]1OC(=O)[C@H](C)[C@@H](O[C@H]2C[C@@](C)(OC)[C@@H](O)[C@H](C)O2)[C@H](C)[C@@H](OC2O[C@H](C)C[C@H](N(C)C)[C@H]2O)[C@](C)(O)C[C@@H](C)CN(Cc2cc(=O)oc3cc(OC)ccc23)[C@H](C)[C@@H](O)[C@]1(C)O (stereo partly drawn) [Compound 7],Y
12,COc1cc(C)c(/C(=C\C(C)=O)CC(NC(=O)C(N)CCC(=O)O)C(=O)O)cc1OC (stereo not drawn) [Compound 14],N
13,CC[C@H]1OC(=O)[C@H](C)[C@@H](OC2C[C@@](C)(OC)[C@@H](O)[C@H](C)O2)[C@H](C)[C@@H](OC2O[C@H](C)C[C@H](N(C)C)[C@H]2O)[C@](C)(O)C[C@@H](C)/C(=N/OCc2cc(=O)oc3cc(OC)c(OC)cc23)[C@H](C)[C@@H](O)[C@]1(C)O (stereo partly drawn) [Compound 3],Y
14,CN(C)c1cccc2c(S(=O)(=O)N3CCN(c4ccc(O)cc4)CC3)cccc12 [Compound 30],N
15,O=C(CSc1ncnc2[nH]cnc12)NCCNc1cccc2c(S(=O)(=O)O)cccc12 [Compound 15],Y
16,CC(C)(C)OC(=O)NC(CSCC(=O)NCCNc1cccc2c(S(=O)(=O)O)cccc12)C(=O)O (stereo not drawn) [Compound 8],Y
17,CN(C)c1cccc2c(S(=O)(=O)Nc3cc(O)[nH]n3)cccc12 [Compound 27],Y
18,CN(C)c1cccc2c(S(=O)(=O)N3CCN(CCO)CC3)cccc12 [Compound 31],N
19,COc1cc(C)c(/C(=C\C(C)=O)CC(NC(=O)CCN)C(=O)O)cc1OC (stereo not drawn) [Compound 12],N
20,CN(C)c1cccc2c(S(=O)(=O)NCCCN3CCCC3=O)cccc12 [Compound 37],N
21,COc1ccc2c(CSc3ncnc4[nH]cnc34)cc(=O)oc2c1 [Compound 9],N
22,CN(C)c1cccc2c(S(=O)(=O)NNC(=N)N)cccc12 [Compound 11],N
23,COc1ccc(/C(=C\C(C)=O)CSc2nnc(-c3ccc([NH+]([O-])O)o3)s2)c(C)c1 (stereo not drawn) [Compound 38],N
24,O=c1ccc2cc(O[C@@H]3O[C@H](CO)C(O)[C@H](O)C3O)c(O)cc2o1 (stereo partly drawn) [Compound 1],Y
25,Cc1cc(=O)oc2cc(SCC(=O)NCCN3CCOCC3)ccc12 [Compound 23],Y
26,CN(C)c1cccc2c(S(=O)(=O)N(CCO)CCO)cccc12 [Compound 33],N
27,CN(C)c1cccc2c(S(=O)(=O)NN3CCN(CCO)CC3)cccc12 [Compound 26],Y
